According to patent publication US20220249441A1, “Homodimeric Tobramycin Adjuvant Repurposes Novobiocin as an Effective Antibacterial Agent Against Gram-Negative Bacteria” (priority 2019, published 2022):

Assays:
[1] = test system: P. aeruginosa PAO1 and efflux deficient mutants, MDR/XDR isolates; experiment: microbe, parasite or virus in culture; format: cell-based, Pseudomonas aeruginosa
Procedure: Antimicrobial Susceptibility Assay. The in vitro antimicrobial activity of all compounds/antibiotics against a panel of bacteria was evaluated by microbroth dilution method in accordance with the Clinical and Laboratory Standards Institute (CLSI) guidelines (using ATCC strains as quality control strains) (54). […] The broth with or without bacterial cells was used as positive or negative control, respectively.

P. aeruginosa = experiment: Checkerboard assay (antibiotic + adjuvant combination MIC); format: cell-based, Pseudomonas aeruginosa; conditions: compound at 8 μM
[2] = test system: panel of Gram-positive and Gram-negative bacteria; experiment: Antimicrobial susceptibility assay against a panel of bacteria; format: cell-based; conditions: some isolates
Procedure: Antimicrobial Susceptibility Assay. The in vitro antimicrobial activity of all compounds/antibiotics against a panel of bacteria was evaluated by microbroth dilution method in accordance with the Clinical and Laboratory Standards Institute (CLSI) guidelines (using ATCC strains as quality control strains) (54). Overnight grown bacterial cultures were diluted in saline to achieve a 0.5 McFarland turbidity, followed by 1:50 dilution in Mueller-Hinton broth (MHB) for inoculation to a final concentration of approximately 5×10^5 CFU/mL. […] The lowest concentration that prevented the visible growth of bacteria was defined as the MIC for each antimicrobial agent. The broth with or without bacterial cells was used as positive or negative control, respectively.

Cl.Cl.Cl.Cl.Cl.NC[C@H]1O[C@H](O[C@H]2[C@H](OCCCCCCCCCCCCN3CCN(c4cc5c(cc4F)c(=O)c(C(=O)O)cn5C4CC4)CC3)[C@@H](O)[C@H](N)C[C@@H]2N)[C@H](N)C[C@@H]1O [Compound 24]
MIC ([1]; PA0750 (efflux-deficient)): 2 µg/mL | MIC ([1]; PAO1 (wild-type)): 32 µg/mL | MIC ([1]; PAO200 (first column so headed)): 4 µg/mL | MIC ([1]; PAO200 (second column so headed)): 2 µg/mL | MIC of Aztreonam + compound (P. aeruginosa; P. aeruginosa PAO1): 0.5 µg/mL | MIC of Ceftazidime + compound (P. aeruginosa; P. aeruginosa PAO1): 0.25 µg/mL | MIC of Imipenem + compound (P. aeruginosa; P. aeruginosa PAO1): 1 µg/mL | MIC of Piperacillin + compound (P. aeruginosa; P. aeruginosa PAO1): 2 µg/mL | MIC of ATM in the presence of compound (P. aeruginosa; PA 259-96918): 8 µg/mL | MIC of CAZ in the presence of compound (P. aeruginosa; PA 259-96918): 128 µg/mL | MIC of IPM in the presence of compound (P. aeruginosa; PA 259-96918): 16 µg/mL | MIC of ATM in the presence of compound (P. aeruginosa; PA 260-97103): 0.25 µg/mL | MIC of CAZ in the presence of compound (P. aeruginosa; PA 260-97103): 0.25 µg/mL | MIC of IPM in the presence of compound (P. aeruginosa; PA 260-97103): 2 µg/mL | MIC of ATM in the presence of compound (P. aeruginosa; PA 262-101856): 16 µg/mL | MIC of CAZ in the presence of compound (P. aeruginosa; PA 262-101856): 4 µg/mL | MIC of IPM in the presence of compound (P. aeruginosa; PA 262-101856): 8 µg/mL | MIC of ATM in the presence of compound (P. aeruginosa; PA 264-104354): 16 µg/mL | MIC of CAZ in the presence of compound (P. aeruginosa; PA 264-104354): 64 µg/mL | MIC of IPM in the presence of compound (P. aeruginosa; PA 264-104354): 8 µg/mL | MIC of ATM in the presence of compound (P. aeruginosa; PA 86052): 4 µg/mL | MIC of CAZ in the presence of compound (P. aeruginosa; PA 86052): 4 µg/mL | MIC of IPM in the presence of compound (P. aeruginosa; PA 86052): 4 µg/mL | MIC of ATM in the presence of compound (P. aeruginosa; PA 88949): 8 µg/mL | MIC of CAZ in the presence of compound (P. aeruginosa; PA 88949): 32 µg/mL | MIC of IPM in the presence of compound (P. aeruginosa; PA 88949): 64 µg/mL | MIC of ATM in the presence of compound (P. aeruginosa; PA 91433): 8 µg/mL | MIC of CAZ in the presence of compound (P. aeruginosa; PA 91433): 0.5 µg/mL | MIC of IPM in the presence of compound (P. aeruginosa; PA 91433): 8 µg/mL | MIC of ATM in the presence of compound (P. aeruginosa; PA 100036): 8 µg/mL | MIC of CAZ in the presence of compound (P. aeruginosa; PA 100036): 4 µg/mL | MIC of IPM in the presence of compound (P. aeruginosa; PA 100036): 4 µg/mL | MIC of ATM in the presence of compound (P. aeruginosa; PA 101243): 0.25 µg/mL | MIC of CAZ in the presence of compound (P. aeruginosa; PA 101243): 4 µg/mL | MIC of IPM in the presence of compound (P. aeruginosa; PA 101243): 4 µg/mL | MIC of ATM in the presence of compound (P. aeruginosa; PA 101885): 4 µg/mL | MIC of CAZ in the presence of compound (P. aeruginosa; PA 101885): 4 µg/mL | MIC of IPM in the presence of compound (P. aeruginosa; PA 101885): 2 µg/mL | MIC of ATM in the presence of compound (P. aeruginosa; PA 107092): 32 µg/mL | MIC of CAZ in the presence of compound (P. aeruginosa; PA 107092): 64 µg/mL | MIC of IPM in the presence of compound (P. aeruginosa; PA 107092): 16 µg/mL | MIC of ATM in the presence of compound (P. aeruginosa; PA 108590): 0.13 µg/mL | MIC of CAZ in the presence of compound (P. aeruginosa; PA 108590): 1 µg/mL | MIC of IPM in the presence of compound (P. aeruginosa; PA 108590): 0.5 µg/mL | MIC of ATM in the presence of compound (P. aeruginosa; PA 109084): 32 µg/mL | MIC of CAZ in the presence of compound (P. aeruginosa; PA 109084): 32 µg/mL | MIC of IPM in the presence of compound (P. aeruginosa; PA 109084): 8 µg/mL | MIC of ATM in the presence of compound (P. aeruginosa; PA 114228): 8 µg/mL | MIC of CAZ in the presence of compound (P. aeruginosa; PA 114228): 4 µg/mL | MIC of IPM in the presence of compound (P. aeruginosa; PA 114228): 1 µg/mL | MIC of ATM in the presence of compound (P. aeruginosa; PA O200 (efflux-deficient)): 0.03 µg/mL | MIC of CAZ in the presence of compound (P. aeruginosa; PA O200 (efflux-deficient)): 0.13 µg/mL | MIC of IPM in the presence of compound (P. aeruginosa; PA O200 (efflux-deficient)): 1 µg/mL | MIC of ATM in the presence of compound (P. aeruginosa; PA O750 (efflux-deficient)): 0.13 µg/mL | MIC of CAZ in the presence of compound (P. aeruginosa; PA O750 (efflux-deficient)): 0.01 µg/mL | MIC of IPM in the presence of compound (P. aeruginosa; PA O750 (efflux-deficient)): 2 µg/mL | MIC of ATM in the presence of compound (P. aeruginosa; PAO1): 0.5 µg/mL | MIC of CAZ in the presence of compound (P. aeruginosa; PAO1): 0.25 µg/mL | MIC of IPM in the presence of compound (P. aeruginosa; PAO1): 1 µg/mL | intrinsic antimicrobial activity [2]: some modest residual activity
